Measured values taken from patent US20230390297A1, “USE OF NUCLEOTIDE SYNTHESIS INHIBITORS FOR TARGETED THERAPY IN MLL3/4 COMPASS MUTANT CANCER” (priority 2022, published 2023).

Key:
[1] = test system: BBN induced bladder cancer, MLL4 mutant tumors; test: BBN induced bladder cancer mouse model; format: in vivo, C57BL/6J male mice; settings: 15 mg/kg intraperitoneal twice a week for 12 weeks; Fisher's exact test, p=0.037
Description: N-butyl-N-(4-hydroxybutyl)-nitrosamine (BBN) is a carcinogen, that mimics the tobacco use in human. When administered to C57/B6 male mice in drinking water for at least 20 weeks, causes muscle invasive bladder tumors (MIBC) (1). Besides, 70% of Kmt2d/MLL4 is mutated in BBN mouse model, mimicking high MLL4 mutation rate (and low UTX mutation rate) found in […] (1, 2). Thus, we believe that this is a valuable system where we could examine the effect of lometrexol in bladder cancer based on the MLL4 mutation stratification.
Experiment design: Thirty 7-week-old C57BL/6J male mice were used in our study to induce bladder cancer by feeding them with 0.1% BBN containing water for 6 weeks. The mice were then randomized into two groups: DMSO (n=15) or lometrexol treatment (n=15) and were given intraperitoneal injections of the respective treatments twice a week at a dose of 15 mg/kg for 12 weeks. At the end of the treatment period, the bladder tissues of the mice were harvested for H&E staining and RNA isolation. Each mouse's tumor grade was assessed, and RNA samples were analyzed for mutations in the kmt2d/MLL4 gene through mRNA-seq. Finally, we compared the MLL4 genotype and treatment to the tumor stage to assess the effectiveness of the treatment.

WT and Mll3/4 KO mESCs = test: RNA-seq of WT and Mll3/4 KO mESCs treated with LTX -/+ HPX; format: cell-based, mouse; settings: 48 hours
Procedure: FIG. 3. […] (A) WT and Mll3/4 KO cells were treated with 0-2.5 μM lometrexol (LTX)−/+50 hypoxanthine (HPX) for 48 hours. CellTiter-Glo® luminescent cell viability assay was performed to determine the percentage of inhibition under these conditions. (B) WT and KO cells were treated with 0.3 μM LTX−/+50 μM HPX for 48 hours, and cells were harvested for RNA-seq. Differential gene expression analyses were performed with indicated comparisons. (C) Principal component analysis of RNA-seq in (B). (D) Hierarchical clustering heatmap showing differentially expressed genes in KO cells in comparison with WT cells.
FIG. 10. Mll3/4 KO mESCs are more sensitive to purine synthesis inhibition. (A-B) WT and Mll3/4 KO cells were treated with 0-2.5 μM lometrexol (LTX) (A) or 0-5 methotrexate (MTX) (B) for 48 hours. CellTiter-Glo® luminescent cell viability assay was performed to determine the percentage of inhibition under these conditions with three different Mll3/4 KO clones included. (C) WT and Mll3/4 KO cells were treated with 0-40 μM SHIINI for 48 hours. MTT cell viability assay was performed to determine the percentage of inhibition under these conditions with three different Mll3/4 KO clones included.
Gene count tables were constructed using HTseq (56) with Ensembl gene annotations and used as input for edgeR 3.0.8 (57). Genes with Benjamini-Hochburg adjusted p-values less than were differentially expressed. Batch effects were removed using ComB at-seq on the raw read counts (58). Pathway analysis was performed with Metascape (59).

[2] = test system: MLL4 mutant colorectal cancer cells (SW480, DLD1, HCT116, RKO); test: CellTiter-Glo viability assay in MLL4 wild type and MLL4 mutant colorectal cell lines; format: cell-based, human; settings: 72 hours; LTX 0-30 μM, Piericidin A 0-10 μM, Phenformin 0-30 mM

With `Nc1nc2c(c(=O)[nH]1)C[C@@H](CCc1ccc(C(=O)N[C@@H](CCC(=O)O)C(=O)O)cc1)CN2` [lometrexol, (2S)-2-[[4-[2-[(6R)-2-amino-4-oxo-5,6,7,8-tetrahydro-3H-pyrido[2,3-d]pyrimidin-6-yl]ethyl]benzoyl]amino]pentanedioic acid] the “tumor stage of mice with MLL4 mutant tumors compared with other groups” value [1] was “significant lowered tumor stages”, the “gene expression change in WT and Mll3/4 KO cells” value (WT and Mll3/4 KO mESCs; 0.3 μM LTX or 50 μM HPX alone, LTX effect almost completely rescued by HPX) was “induced significant gene expression change” and the “genes commonly downregulated in WT and KO cells” value (WT and Mll3/4 KO mESCs; 0.3 μM LTX) was 1063 genes. For the same compound, the “genes commonly upregulated in WT and KO cells” value (WT and Mll3/4 KO mESCs; 0.3 μM LTX) was 1195 genes and the “sensitivity of MLL4 mutant cells compared with MLL4 wild type cells (growth inhibition)” value [2] was “selectively more sensitive”.
